Laboratory results taken from patent US10173999B2, “Cyclic amine derivative and pharmaceutical use thereof” (Toray Industries, Inc., priority 2015, dated 2019).
“Also recorded” adds a separate entry of the source. Counter-ions that a name gives are not always drawn.

What was measured:
[1] = Stability test in monkey liver microsomes; type: in vitro ADME; settings: pH 7.4; monkey liver microsomes 0.5 mg/mL, test compound 2 μmol/L, 37° C., 0-30 min; read-out: Hepatic intrinsic clearance, Monkey
Description: Experiment was performed using the compound of Example 11, Comparative Example 1 or Comparative Example 6 as a test compound and human liver microsomes (from Xenotech), monkey liver microsomes (from Xenotech), dog liver microsomes (from Xenotech) or mouse liver microsomes (from Xenotech) as the liver microsomes.
The reagents to be used in the stability test in liver microsomes were prepared as follows. A D-glucose 6-phosphate disodium salt (hereinafter referred to as G6P) was dissolved with distilled water to prepare an aqueous solution of G6P (100 mmol/L). Glucose 6-phosphate dehydrogenase (1000 units) from Yeast (hereinafter referred to as G6PDH) was dissolved with distilled water (5 mL) to prepare an aqueous solution of G6PDH (200 units/mL). MgCl2 was dissolved with distilled water to prepare an aqueous solution of MgCl2 (100 mmol/L). […]
With respect to the chromatogram of each well obtained by LC/MS analysis or LC/MS/MS analysis, the test compound residual ratio (%) at each reaction time t (min) was calculated based on the peak area at the reaction time of 0 minute as 100%. […]

[2] = system: human aortic smooth muscle cells (T/G HA-VSMG); assay: Inducibility of cytoplasmic vacuolation in human aortic smooth muscle cells; type: cell-based; settings: Concentration: 1.0 mmol/L
Description: As a test compound, the compound of Example 3, 9, 11, 12 or compounds of Comparative Examples 2 to 6 were used. Canine aortic smooth muscle cells (Canine Aortic Smooth Muscle Cells, supply source: Toyobo Co., Ltd.) or human aortic smooth muscle cells of (T/G HA-VSMG, supply source: ATCC) were treated with a test compound (1.0 or 1.2 mmol/L in concentration) for 24 hours or 2 weeks. The cells were stained with HE, immunohistochemically for LAMP-2 or toluidine blue, and thereafter the presence or absence of cytoplasmic vacuolation was determined by using an optical microscope.

SMILES: CC(C)n1ccnc1CCC(=O)N1CCC(N(C)C)CC1 [Comparative Example 6, 1-(4-(dimethylamino)piperidin-1-yl)-3-(1-isopropyl-1H-imidazol-2-yl)propan-1-one hydrochloride]
- microsomal CLint at 2 μmol/L [1]: 6 µL/min/mg

SMILES: CN(C)C1CCN(C(=O)C[C@H](O)c2nccn2C)CC1 [Example 11, (S)-1-(4-(dimethylamino)piperidin-1-yl)-3-hydroxy-3-(1-methyl-1H-imidazol-2-yl)propan-1-one]
- Inducibility of cytoplasmic vacuolation ([2]; Treatment time: 2 weeks): not observed; also recorded: Absent
- Inducibility of cytoplasmic vacuolation ([2]; Treatment time: 24 hours): Absent

SMILES: CN(C)C1CCN(C(=O)CCc2nccn2C)CC1 [Comparative Example 1, 1-(4-(dimethylamino)piperidin-1-yl)-3-(1-methyl-1H-imidazol-2-yl)propan-1-one hydrochloride]
- microsomal CLint at 2 μmol/L [1]: 2 µL/min/mg
